Experimental data: patent US6355799B1, “Substituted benzene compounds, process for their preparation, and herbicidal and defoliant compositions containing them” (ISK Americas Incorporated, priority 1997, dated 2002)

Experiments:
Type in all cases: in vivo
[1] = test system: redroot pigweed (Amaranthus retroflexus, AMARE); assay: Pre-emerge test, greenhouse herbicide activity screening; conditions: pre-emerge; for phytotoxicity rating AMARE: 14 days after application, scale 0-100; for Pre-emerge Herbicidal Activity AMARE: phytotoxicity rating 0-100 at 14 days after application
Summary of the method: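 Sandy loam pots; pre-emerge: sown 1 d pre-spray, surface-watered after, then bottom-watered. Post-emerge: sown 8–21 d before, 2–3 leaf stage, + 0.25% v/v NIS, bottom-watered. Acetone, 187 l/ha track spray, 15–1000 g ai/ha. 0–100 injury score, day 14.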

[2] = test system: upland rice (Oryza sp., var. Tebonnet, RICE); assay: Pre-emerge test, crop safety; conditions: pre-emerge; for phytotoxicity rating RICE (crop damage): 14 days after application, scale 0-100; for Pre-emerge Herbicidal Activity RICE: crop damage, phytotoxicity rating 0-100 at 14 days after application
Summary of the method: (§1)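 Fourteen days after spraying, crop and weed injury was graded visually from 0, no effect, to 100, every plant dead. Test substances were dissolved in acetone and applied at 15–1000 g ai/ha with a flat-fan nozzle. Application was either pre-emergence, one day after sowing, or post-emergence at the 2–3 leaf stage.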

[3] = test system: field corn (Zea mays L., var. Dekalb 535, CORN); assay: Pre-emerge test, crop safety; conditions: pre-emerge; for phytotoxicity rating CORN (crop damage): 14 days after application, scale 0-100; for Pre-emerge Herbicidal Activity CORN: crop damage, phytotoxicity rating 0-100 at 14 days after application
Summary of the method: as §1

[4] = test system: upland rice (Oryza sp., var. Tebonnet, RICE); assay: Post-emerge test, crop safety; conditions: post-emerge; for RICE phytotoxicity rating (crop damage): 14 days after application, rating scale 0-100; for Post-emerge Herbicidal Activity RICE: crop damage rating 0-100 at 14 days after application
Summary of the method: (§2)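 Compounds in acetone were track-sprayed at 15-1000 g ai/ha (187 l/ha) on sandy loam pots: pre-emerge one day after seeding, post-emerge at 2-3 leaf stage with 0.25% v/v non-ionic surfactant. Phytotoxicity was rated 14 days later on a 0 (no damage) to 100 (complete death) scale.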

[5] = test system: field corn (Zea mays L., var. Dekalb 535, CORN); assay: Post-emerge test, crop safety; conditions: post-emerge; for CORN phytotoxicity rating (crop damage): 14 days after application, rating scale 0-100; for Post-emerge Herbicidal Activity CORN: crop damage rating 0-100 at 14 days after application
Summary of the method: as §2

[6] = test system: ivyleaf morningglory (Ipomoea hederacea, IPOHE); assay: Post-emerge test, greenhouse herbicide activity screening; conditions: post-emerge; for IPOHE phytotoxicity rating: 14 days after application, rating scale 0-100; for Post-emerge Herbicidal Activity IPOHE: phytotoxicity rating 0-100 at 14 days after application
Summary of the method: (§3)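 Compounds in acetone were track-sprayed at 15–1000 g ai/ha: pre-emergence onto soil sown the previous day, then top-watered to incorporate and later bottom-watered; post-emergence onto 2–3 leaf plants with 0.25% v/v surfactant, bottom-watered only. Ratings on a 0–100 phytotoxicity scale were taken at day 14.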

[7] = test system: johnsongrass (Sorghum halepense, SORHA); assay: as above; conditions: post-emerge; for SORHA phytotoxicity rating: 14 days after application, rating scale 0-100; for Post-emerge Herbicidal Activity SORHA: phytotoxicity rating 0-100 at 14 days after application
Summary of the method: as §3

[8] = test system: barnyardgrass (Echinochloa crus-galli, ECHCG); assay: as above; conditions: post-emerge; for ECHCG phytotoxicity rating: 14 days after application, rating scale 0-100; for Post-emerge Herbicidal Activity ECHCG: phytotoxicity rating 0-100 at 14 days after application
Summary of the method: as §3

[9] = test system: green foxtail (Setaria viridis, SETVI); assay: as above; conditions: post-emerge; for SETVI phytotoxicity rating: 14 days after application, rating scale 0-100; for Post-emerge Herbicidal Activity SETVI: phytotoxicity rating 0-100 at 14 days after application
Summary of the method: as §3

[10] = test system: lambsquarters (Chenopodium album, CHEAL); assay: as above; conditions: post-emerge; for CHEAL phytotoxicity rating: 14 days after application, rating scale 0-100; for Post-emerge Herbicidal Activity CHEAL: phytotoxicity rating 0-100 at 14 days after application
Summary of the method: as §3

[11] = test system: large crabgrass (Digitaria sanguinalis, DIGSA); assay: as above; conditions: post-emerge; for DIGSA phytotoxicity rating: 14 days after application, rating scale 0-100; for Post-emerge Herbicidal Activity DIGSA: phytotoxicity rating 0-100 at 14 days after application
Summary of the method: as §3

[12] = test system: velvetleaf (Abutilon theophrasti, ABUTH); assay: as above; conditions: post-emerge; for ABUTH phytotoxicity rating: 14 days after application, rating scale 0-100; for Post-emerge Herbicidal Activity ABUTH: phytotoxicity rating 0-100 at 14 days after application
Summary of the method: as §3

[13] = test system: sicklepod (Cassia obtusifolia, CASOB); assay: as above; conditions: post-emerge; for CASOB phytotoxicity rating: 14 days after application, rating scale 0-100; for Post-emerge Herbicidal Activity CASOB: phytotoxicity rating 0-100 at 14 days after application
Summary of the method: as §3

[14] = test system: redroot pigweed (Amaranthus retroflexus, AMARE); assay: as above; conditions: post-emerge; for AMARE phytotoxicity rating: 14 days after application, rating scale 0-100; for Post-emerge Herbicidal Activity AMARE: phytotoxicity rating 0-100 at 14 days after application
Summary of the method: as §3

[15] = test system: ivyleaf morningglory (Ipomoea hederacea, IPOHE); assay: Pre-emerge test, greenhouse herbicide activity screening; conditions: pre-emerge; for phytotoxicity rating IPOHE: 14 days after application, scale 0-100; for Pre-emerge Herbicidal Activity IPOHE: phytotoxicity rating 0-100 at 14 days after application
Summary of the method: as §2

[16] = test system: barnyardgrass (Echinochloa crus-galli, ECHCG); assay: as above; conditions: pre-emerge; for phytotoxicity rating ECHCG: 14 days after application, scale 0-100; for Pre-emerge Herbicidal Activity ECHCG: phytotoxicity rating 0-100 at 14 days after application
Summary of the method: as §2

[17] = test system: green foxtail (Setaria viridis, SETVI); assay: as above; conditions: pre-emerge; for phytotoxicity rating SETVI: 14 days after application, scale 0-100; for Pre-emerge Herbicidal Activity SETVI: phytotoxicity rating 0-100 at 14 days after application
Summary of the method: as §2

[18] = test system: lambsquarters (Chenopodium album, CHEAL); assay: as above; conditions: pre-emerge; for phytotoxicity rating CHEAL: 14 days after application, scale 0-100; for Pre-emerge Herbicidal Activity CHEAL: phytotoxicity rating 0-100 at 14 days after application
Summary of the method: as §2

[19] = test system: large crabgrass (Digitaria sanguinalis, DIGSA); assay: as above; conditions: pre-emerge; for phytotoxicity rating DIGSA: 14 days after application, scale 0-100; for Pre-emerge Herbicidal Activity DIGSA: phytotoxicity rating 0-100 at 14 days after application
Summary of the method: as §2

[20] = test system: velvetleaf (Abutilon theophrasti, ABUTH); assay: as above; conditions: pre-emerge; for phytotoxicity rating ABUTH: 14 days after application, scale 0-100; for Pre-emerge Herbicidal Activity ABUTH: phytotoxicity rating 0-100 at 14 days after application
Summary of the method: as §2

[21] = test system: sicklepod (Cassia obtusifolia, CASOB); assay: as above; conditions: pre-emerge; for phytotoxicity rating CASOB: 14 days after application, scale 0-100; for Pre-emerge Herbicidal Activity CASOB: phytotoxicity rating 0-100 at 14 days after application
Summary of the method: as §2

Compound: COc1ccccc1C=CC(=O)Nc1c(OC)c(Cl)cc(F)c1-n1c(=O)cc(C(F)(F)F)n(C)c1=O [2-127]
- phytotoxicity rating AMARE ([1]; 63 g ai/ha): 90
- phytotoxicity rating AMARE ([1]; 250 g ai/ha): 100
- phytotoxicity rating RICE (crop damage) ([2]; 63 g ai/ha): 0
- phytotoxicity rating RICE (crop damage) ([2]; 250 g ai/ha): 10
- phytotoxicity rating CORN (crop damage) ([3]; 63 g ai/ha): 0
- phytotoxicity rating CORN (crop damage) ([3]; 250 g ai/ha): 0
- RICE phytotoxicity rating (crop damage) ([4]; 63 g ai/ha): 30
- RICE phytotoxicity rating (crop damage) ([4]; 250 g ai/ha): 35
- CORN phytotoxicity rating (crop damage) ([5]; 63 g ai/ha): 10
- CORN phytotoxicity rating (crop damage) ([5]; 250 g ai/ha): 15
- IPOHE phytotoxicity rating ([6]; 63 g ai/ha): 100
- IPOHE phytotoxicity rating ([6]; 250 g ai/ha): 95
- SORHA phytotoxicity rating ([7]; 63 g ai/ha): 20
- SORHA phytotoxicity rating ([7]; 250 g ai/ha): 20
- ECHCG phytotoxicity rating ([8]; 63 g ai/ha): 30
- ECHCG phytotoxicity rating ([8]; 250 g ai/ha): 20
- SETVI phytotoxicity rating ([9]; 63 g ai/ha): 30
- SETVI phytotoxicity rating ([9]; 250 g ai/ha): 40
- CHEAL phytotoxicity rating ([10]; 63 g ai/ha): 70
- CHEAL phytotoxicity rating ([10]; 250 g ai/ha): 100
- DIGSA phytotoxicity rating ([11]; 63 g ai/ha): 20
- DIGSA phytotoxicity rating ([11]; 250 g ai/ha): 30
- ABUTH phytotoxicity rating ([12]; 63 g ai/ha): 100
- ABUTH phytotoxicity rating ([12]; 250 g ai/ha): 100
- CASOB phytotoxicity rating ([13]; 63 g ai/ha): 100
- CASOB phytotoxicity rating ([13]; 250 g ai/ha): 60
- AMARE phytotoxicity rating ([14]; 63 g ai/ha): 100
- AMARE phytotoxicity rating ([14]; 250 g ai/ha): 100
- phytotoxicity rating IPOHE ([15]; 63 g ai/ha): 0
- phytotoxicity rating IPOHE ([15]; 250 g ai/ha): 50
- phytotoxicity rating ECHCG ([16]; 63 g ai/ha): 0
- phytotoxicity rating ECHCG ([16]; 250 g ai/ha): 40
- phytotoxicity rating SETVI ([17]; 63 g ai/ha): 20
- phytotoxicity rating SETVI ([17]; 250 g ai/ha): 80
- phytotoxicity rating CHEAL ([18]; 63 g ai/ha): 100
- phytotoxicity rating CHEAL ([18]; 250 g ai/ha): 100
- phytotoxicity rating DIGSA ([19]; 63 g ai/ha): 30
- phytotoxicity rating DIGSA ([19]; 250 g ai/ha): 100
- phytotoxicity rating ABUTH ([20]; 63 g ai/ha): 100
- phytotoxicity rating ABUTH ([20]; 250 g ai/ha): 100
- phytotoxicity rating CASOB ([21]; 63 g ai/ha): 0
- phytotoxicity rating CASOB ([21]; 250 g ai/ha): 40

Compound: Cc1nn(-c2c(F)cc(Cl)cc2NC(=O)c2ccc(F)cc2F)c(=O)n1C(F)F [Compound 6-23]
- Pre-emerge Herbicidal Activity AMARE ([1]; rate 63 g ai/ha): 50
- Pre-emerge Herbicidal Activity AMARE ([1]; rate 250 g ai/ha): 100
- Pre-emerge Herbicidal Activity RICE ([2]; rate 63 g ai/ha): 0
- Pre-emerge Herbicidal Activity RICE ([2]; rate 250 g ai/ha): 0
- Pre-emerge Herbicidal Activity CORN ([3]; rate 63 g ai/ha): 0
- Pre-emerge Herbicidal Activity CORN ([3]; rate 250 g ai/ha): 0
- Post-emerge Herbicidal Activity RICE ([4]; 63 g ai/ha): 0
- Post-emerge Herbicidal Activity RICE ([4]; 250 g ai/ha): 15
- Post-emerge Herbicidal Activity CORN ([5]; 63 g ai/ha): 0
- Post-emerge Herbicidal Activity CORN ([5]; 250 g ai/ha): 15
- Post-emerge Herbicidal Activity IPOHE ([6]; 63 g ai/ha): 10
- Post-emerge Herbicidal Activity IPOHE ([6]; 250 g ai/ha): 30
- Post-emerge Herbicidal Activity SORHA ([7]; 63 g ai/ha): 0
- Post-emerge Herbicidal Activity SORHA ([7]; 250 g ai/ha): 0
- Post-emerge Herbicidal Activity ECHCG ([8]; 63 g ai/ha): 0
- Post-emerge Herbicidal Activity ECHCG ([8]; 250 g ai/ha): 0
- Post-emerge Herbicidal Activity SETVI ([9]; 63 g ai/ha): 0
- Post-emerge Herbicidal Activity SETVI ([9]; 250 g ai/ha): 30
- Post-emerge Herbicidal Activity CHEAL ([10]; 63 g ai/ha): 20
- Post-emerge Herbicidal Activity CHEAL ([10]; 250 g ai/ha): 70
- Post-emerge Herbicidal Activity DIGSA ([11]; 63 g ai/ha): 0
- Post-emerge Herbicidal Activity DIGSA ([11]; 250 g ai/ha): 10
- Post-emerge Herbicidal Activity ABUTH ([12]; 63 g ai/ha): 40
- Post-emerge Herbicidal Activity ABUTH ([12]; 250 g ai/ha): 55
- Post-emerge Herbicidal Activity CASOB ([13]; 63 g ai/ha): 0
- Post-emerge Herbicidal Activity CASOB ([13]; 250 g ai/ha): 10
- Post-emerge Herbicidal Activity AMARE ([14]; 63 g ai/ha): 20
- Post-emerge Herbicidal Activity AMARE ([14]; 250 g ai/ha): 85
- Pre-emerge Herbicidal Activity IPOHE ([15]; rate 63 g ai/ha): 0
- Pre-emerge Herbicidal Activity IPOHE ([15]; rate 250 g ai/ha): 20
- Pre-emerge Herbicidal Activity ECHCG ([16]; rate 63 g ai/ha): 0
- Pre-emerge Herbicidal Activity ECHCG ([16]; rate 250 g ai/ha): 0
- Pre-emerge Herbicidal Activity SETVI ([17]; rate 63 g ai/ha): 0
- Pre-emerge Herbicidal Activity SETVI ([17]; rate 250 g ai/ha): 60
- Pre-emerge Herbicidal Activity CHEAL ([18]; rate 63 g ai/ha): 30
- Pre-emerge Herbicidal Activity CHEAL ([18]; rate 250 g ai/ha): 100
- Pre-emerge Herbicidal Activity DIGSA ([19]; rate 63 g ai/ha): 0
- Pre-emerge Herbicidal Activity DIGSA ([19]; rate 250 g ai/ha): 10
- Pre-emerge Herbicidal Activity ABUTH ([20]; rate 63 g ai/ha): 0
- Pre-emerge Herbicidal Activity ABUTH ([20]; rate 250 g ai/ha): 50
- Pre-emerge Herbicidal Activity CASOB ([21]; rate 63 g ai/ha): 0
- Pre-emerge Herbicidal Activity CASOB ([21]; rate 250 g ai/ha): 10
